The values that follow come from US20090023696A1, “USE OF C3-C10 17ALFA-ESTERS OF 9,11-DEHYDROCORTEXOLONE AS ANTI-GONADOTROPHIC AGENTS” (COSMO BIO-TECHNOLOGIES SRL, priority 2005, published 2009).

Values joined by “and” are separate entries in the source; they are usually repeats but may differ in a detail not shown here. Identical values can stand only once. “Also recorded” adds a separate entry of the source. Marks after values point to notes of the source that are not given here.

The assay concerns hypersecretion of gonadotrophin in the parabiotic rat. Description: Hypersecretion of gonadotrophin induced by castration in parabiotic rats (ovarian weight). In kind it is in vivo, Wistar rats. To be noted: for Inhibition of ovarian weight (%): subcutaneously into castrated males; for anti-gonadotrophic effect (inhibitory effect on gonadotrophin secretion), in words: overall conclusion from Table 1. As to the method:
The anti-gonadotrophic action was evaluated in an animal model by evaluation of the hypersecretion of the gonads induced by castration in parabiotic rats (Shipley E. G., in: Methods in Hormone Research, R. L Dorfman (ed.), vol. 2, pp 179-274. Academic Press, New York and London, 1962). The results of the inhibitory action of […] 17α-butyrate on the gonads are shown below in Table 1. Wistar rats of both sexes with body weights of 50-60 g were used. The males were castrated and, on the next day, were surgically united along the lateral body wall with intact females (parabiosis). In this experimental procedure, the castration of the males induces in them an immediate hypersecretion of gonadotrophin, which, on reaching the female via the parabiotic union, stimulates ovarian growth. […] Progesterone was used as a positive control and was administered by the same procedure, in doses of 0.5 and 2 mg. Additional groups of pairs including intact males/intact females and castrated males/intact females were treated with the vehicle only and used as a control. At the end of the treatment period, the pairs were killed and autopsies performed. The ovaries and uteruses of each female rate were isolated and weighed. The inhibitory action causing hypersecretion of gonadotrophin due to castration was evaluated via the capacity of the tested compound to oppose the increase of weight of the ovaries.

With `CCCC(=O)O[C@]1(C(=O)CO)CCC2C3CCC4=CC(=O)CCC4(C)C3=CCC21C` (stereo partly drawn) [9,11-dehydrocortexolone 17α-butyrate], the “anti-gonadotrophic effect (inhibitory effect on gonadotrophin secretion), in words” value is “strong and significant dose-correlated inhibitory effect on gonadotrophin secretion; also recorded: comparable to that shown by comparable doses of progesterone”. For the same molecule, the “Inhibition of ovarian weight (%)” value (daily dose 1 mg) is 59% and 59^a %. For the same molecule, the “Inhibition of ovarian weight (%)” value (daily dose 5 mg) is 96% and 96^a %.
Consider `CCC(=O)O[C@]1(C(=O)CO)CC[C@H]2[C@@H]3CCC4=CC(=O)CC[C@]4(C)[C@H]3CC[C@@]21C` [cortexolone 17α-propionate, reference compound], for which the “anti-gonadotrophic effect (inhibitory effect on gonadotrophin secretion), in words” value is given as “no anti-gonadotrophic action at all”. Besides, the “Inhibition of ovarian weight (%)” value (daily dose 1 mg) worked out at 5%. In addition, the “Inhibition of ovarian weight (%)” value (daily dose 5 mg) is 5%.
`CC(=O)[C@H]1CC[C@H]2[C@@H]3CCC4=CC(=O)CC[C@]4(C)[C@H]3CC[C@]12C` [progesterone, reference compound]: the “Inhibition of ovarian weight (%)” value runs as follows: (daily dose 0.5 mg) 38^b %; (daily dose 2 mg) 66^a %.
